Columns and labels:
Type in all cases: cell-based
[1] = molecular target: T1, CRBN with proteins of a human ORF(eome) cDNA library (Homo sapiens, UniProt Q96SW2); test: MAPPIT-derivative cell microarray screen of a human ORF(eome) cDNA library with CRBN bait (pSEL-CRBN); conditions: CC-220 10 μM; four ORF cDNAs confirmed in dose-response
T1 construct: expressed in transfected cells; host or cells: HEK293T
Procedure: In order to identify ligand-induced CRBN substrates, or neosubstrates, a MAPPIT cell microarray screen was performed using the procedure described in Lievens, et al. “Proteome-scale binary interactomics in human cells.” Molecular & Cellular Proteomics 15.12 (2016): 3624-3639. […] These transfected cells were then added to microarray screening plates containing a prey gp130 fusion expression plasmid collection covering over 15,000 ORFs. Each spot in the microarray contained a different gp130-ORF fusion expression plasmid, as well as a STAT3-responsive fluorescence protein-encoding reporter plasmid. CRBN bait transfected cells landing and attaching on these spots therefore become transfected as well with the gp130-ORF prey plasmid and the reporter plasmid, resulting in a different CRBN-ORF combination being tested in the cells on every different microarray spot. Twenty-four hours after transfection cells were differentially stimulated with erythropoietin with and without the CRBN ligand CC-220 (10 μM), and reporter signal (GFP-like fluorescence reporter) was read out 48 hours later.

CRBN-GSPT1 interaction = molecular target: T2, CRBN-GSPT1 interaction (Homo sapiens, UniProt Q96SW2); test: MAPPIT-derivative assay, CRBN bait receptor fusion (pSEL-CRBN) with gp130-GSPT1 (domain 2+3), luciferase reporter in HEK293T cells; conditions: dose-response, EPO-stimulated, 24 hours compound treatment
T2 construct: expressed in transfected cells; host or cells: HEK293T
T2 sequence (Q96SW2 whole entry, the tested form may be a part): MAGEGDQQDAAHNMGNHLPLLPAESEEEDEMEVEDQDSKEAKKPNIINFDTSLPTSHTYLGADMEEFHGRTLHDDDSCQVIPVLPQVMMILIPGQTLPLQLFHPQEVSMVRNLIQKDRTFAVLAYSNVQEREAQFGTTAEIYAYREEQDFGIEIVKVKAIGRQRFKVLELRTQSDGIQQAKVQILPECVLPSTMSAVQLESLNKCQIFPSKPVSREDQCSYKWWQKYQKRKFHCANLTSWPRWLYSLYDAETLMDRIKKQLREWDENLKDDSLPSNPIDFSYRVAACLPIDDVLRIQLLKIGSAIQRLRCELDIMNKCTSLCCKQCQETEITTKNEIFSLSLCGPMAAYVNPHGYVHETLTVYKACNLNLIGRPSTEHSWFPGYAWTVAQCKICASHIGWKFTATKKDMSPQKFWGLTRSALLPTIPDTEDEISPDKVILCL
T2 sequence (P15170 299-495 partner limits assumed): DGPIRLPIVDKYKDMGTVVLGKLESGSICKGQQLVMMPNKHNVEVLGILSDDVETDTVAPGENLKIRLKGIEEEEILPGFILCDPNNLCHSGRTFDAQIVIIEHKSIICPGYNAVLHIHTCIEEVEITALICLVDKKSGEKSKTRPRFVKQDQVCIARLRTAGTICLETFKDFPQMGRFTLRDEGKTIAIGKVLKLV
T2 sequence (Q16531 whole entry partner, the tested form may be a part): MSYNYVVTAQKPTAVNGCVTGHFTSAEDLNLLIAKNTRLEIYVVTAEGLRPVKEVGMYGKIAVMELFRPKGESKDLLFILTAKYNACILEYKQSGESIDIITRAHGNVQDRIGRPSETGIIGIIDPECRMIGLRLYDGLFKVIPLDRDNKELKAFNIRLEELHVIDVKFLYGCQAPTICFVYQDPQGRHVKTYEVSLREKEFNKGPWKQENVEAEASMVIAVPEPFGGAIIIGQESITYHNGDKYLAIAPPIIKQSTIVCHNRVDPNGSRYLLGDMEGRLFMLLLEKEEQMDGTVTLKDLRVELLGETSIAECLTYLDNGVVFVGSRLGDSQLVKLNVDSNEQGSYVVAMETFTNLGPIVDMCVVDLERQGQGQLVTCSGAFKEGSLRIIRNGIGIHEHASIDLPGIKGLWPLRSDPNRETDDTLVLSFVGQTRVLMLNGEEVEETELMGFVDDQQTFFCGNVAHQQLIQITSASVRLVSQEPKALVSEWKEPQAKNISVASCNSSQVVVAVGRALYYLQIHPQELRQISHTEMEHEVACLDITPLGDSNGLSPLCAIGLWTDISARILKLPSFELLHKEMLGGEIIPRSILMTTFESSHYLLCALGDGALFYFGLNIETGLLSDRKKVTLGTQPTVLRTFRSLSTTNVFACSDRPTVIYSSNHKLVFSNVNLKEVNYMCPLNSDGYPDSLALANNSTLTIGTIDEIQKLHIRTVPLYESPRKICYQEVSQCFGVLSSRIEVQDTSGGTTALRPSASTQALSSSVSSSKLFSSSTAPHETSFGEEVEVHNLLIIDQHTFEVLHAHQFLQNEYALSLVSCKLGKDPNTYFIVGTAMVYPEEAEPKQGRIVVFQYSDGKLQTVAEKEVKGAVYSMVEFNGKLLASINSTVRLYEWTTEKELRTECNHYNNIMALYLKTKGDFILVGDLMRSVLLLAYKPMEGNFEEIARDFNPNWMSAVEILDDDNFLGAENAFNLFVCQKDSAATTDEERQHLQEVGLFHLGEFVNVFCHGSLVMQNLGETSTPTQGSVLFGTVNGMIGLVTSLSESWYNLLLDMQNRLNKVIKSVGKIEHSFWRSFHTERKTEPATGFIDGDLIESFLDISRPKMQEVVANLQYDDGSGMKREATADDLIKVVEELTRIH
Text: (§1) In order to identify ligand-induced CRBN substrates, or neosubstrates, here we use a derivative of the MAPPIT assay, applying the procedure described in Lemmens, et al. “MAPPIT, a mammalian two-hybrid method for in-cell detection of protein-protein interactions,” Methods Mol Biol. 2015; 1278:447-55. The traditional MAPPIT assay has been used to monitor protein-protein interactions. A bait protein (protein A) is expressed as a fusion protein in which it is genetically fused to an engineered intracellular receptor domain of the leptin receptor, which is itself fused to the extracellular domain of the erythropoietin (Epo) receptor. […] Activation of STAT3 can be monitored by introduction of a STAT3-responsive reporter gene, including a luciferase-encoding gene or a gene encoding a fluorescent marker such as GFP or some other type of Fluorescent Protein (EGFP, etc.). […]
(§2) In this Example 1, we used a derivative of the MAPPIT assay that we developed specifically for use in determining CRBN-ligand induced protein interactions, i.e. using a specific CRBN bait protein and assaying for ligand-dependent induction of protein complex formation. The CRBN bait protein is expressed as a fusion with the MAPPIT chimeric membrane receptor and the interacting target protein is fused with the cytoplasmic gp130 receptor fragment (gp130-IKZF1(isoform 7), gp130-target X, gp130-GSPT1(domain 2+3) or gp130-GSPT2). […]

CRBN-GSPT2 interaction = molecular target: T3, CRBN-GSPT2 interaction (Homo sapiens, UniProt Q96SW2); test: MAPPIT-derivative assay, CRBN bait receptor fusion (pSEL-CRBN) with gp130-GSPT2, luciferase reporter in HEK293T cells; conditions: dose-response, EPO-stimulated, 24 hours compound treatment
T3 construct: expressed in transfected cells; host or cells: HEK293T
T3 sequence (Q96SW2 whole entry, the tested form may be a part): as the sequence (Q96SW2 whole entry, the tested form may be a part) above
T3 sequence (Q8IYD1 whole entry partner, the tested form may be a part): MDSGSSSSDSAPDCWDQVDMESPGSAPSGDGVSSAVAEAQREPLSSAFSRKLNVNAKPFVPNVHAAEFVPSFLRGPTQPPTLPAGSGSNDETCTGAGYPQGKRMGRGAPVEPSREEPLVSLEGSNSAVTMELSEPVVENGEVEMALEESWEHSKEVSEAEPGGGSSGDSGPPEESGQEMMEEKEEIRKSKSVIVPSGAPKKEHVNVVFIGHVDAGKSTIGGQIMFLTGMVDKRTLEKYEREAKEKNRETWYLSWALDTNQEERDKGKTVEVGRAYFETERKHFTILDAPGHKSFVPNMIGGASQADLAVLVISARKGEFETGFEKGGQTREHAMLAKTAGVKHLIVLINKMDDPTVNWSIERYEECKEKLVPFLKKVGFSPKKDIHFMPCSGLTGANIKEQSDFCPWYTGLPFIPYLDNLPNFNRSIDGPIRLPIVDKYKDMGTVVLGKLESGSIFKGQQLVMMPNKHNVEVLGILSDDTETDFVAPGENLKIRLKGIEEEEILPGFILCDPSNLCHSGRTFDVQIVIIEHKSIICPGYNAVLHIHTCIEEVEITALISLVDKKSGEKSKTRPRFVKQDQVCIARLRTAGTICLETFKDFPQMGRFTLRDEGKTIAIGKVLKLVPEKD
T3 sequence (Q16531 whole entry partner, the tested form may be a part): as the sequence (Q16531 whole entry partner, the tested form may be a part) above
Text: as §1, §2

[2] = molecular target: T4, FKBP1A (FKBP12)-calcineurin PPP3CA interaction (Homo sapiens, UniProt P62942); test: MAPPIT-derivative assay, FKBP1A bait receptor fusion (pSEL-FKBP1A) with gp130 fusion of calcineurin PPP3CA catalytic subunit; conditions: dose-response; without or with co-expression of PPP3R2 regulatory subunit
T4 construct: expressed in transfected cells; host or cells: HEK293T
T4 sequence (P62942 whole entry, other chains not shown, the tested form may be a part): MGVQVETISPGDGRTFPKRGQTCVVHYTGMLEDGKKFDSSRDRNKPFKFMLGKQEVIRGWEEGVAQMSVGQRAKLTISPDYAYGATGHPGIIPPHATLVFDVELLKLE
T4 sequence (Q96LZ3 whole entry partner, other chains not shown, the tested form may be a part): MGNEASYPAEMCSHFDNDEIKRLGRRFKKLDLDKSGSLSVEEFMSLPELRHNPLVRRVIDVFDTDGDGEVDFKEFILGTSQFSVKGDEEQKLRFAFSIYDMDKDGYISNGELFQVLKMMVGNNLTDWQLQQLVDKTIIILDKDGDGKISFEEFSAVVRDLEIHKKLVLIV
Procedure: (§3) Luciferase activity was measured 24 hours after test compound treatment using the Luciferase Assay System kit (PROMEGA, Madison, Wis.) with an Ensight plate reader (PERKIN ELMER LIFE SCIENCES, Waltham, Mass.). […] Error bars represent standard deviations. Curves were fit using 4-parameter nonlinear regression in […] PRISM software.

[3] = molecular target: T5, FKBP1A (FKBP12)-MTOR (FRB domain) interaction (Homo sapiens, UniProt P62942); test: MAPPIT-derivative assay, FKBP1A bait receptor fusion (pSEL-FKBP1A) with gp130-MTOR (FRB domain); conditions: dose-response, HEK293T, EPO-stimulated
T5 construct: expressed in transfected cells; host or cells: HEK293T
T5 sequence (P62942 whole entry, the tested form may be a part): as the sequence (P62942 whole entry, other chains not shown, the tested form may be a part) above
T5 sequence (P42345 2012-2144 partner limits assumed): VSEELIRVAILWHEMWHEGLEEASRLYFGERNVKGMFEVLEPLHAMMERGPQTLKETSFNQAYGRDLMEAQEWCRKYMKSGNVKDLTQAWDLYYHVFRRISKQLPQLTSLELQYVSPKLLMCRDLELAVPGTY
Procedure: as §3
Luciferase activity was measured 24 hours after test compound treatment using the Luciferase Assay System kit (PROMEGA, Madison, Wis.) with an Ensight plate reader (PERKIN ELMER LIFE SCIENCES, Waltham, Mass.). […] Error bars represent standard deviations.

T1 sequence (Q96SW2 whole entry): as the sequence (Q96SW2 whole entry, the tested form may be a part) above
T1 sequence (Q16531 whole entry partner): as the sequence (Q16531 whole entry partner, the tested form may be a part) above

**Q.** O=C1CC[C@H](N2Cc3c(OCc4ccc(CN5CCOCC5)cc4)cccc3C2=O)C(=O)N1 [CC-220] was tested. Which “fluorescence reporter signal, ORF proteins recruited to CRBN” value [1] did it give?
**A.** significant induction of signal is observed for a number of ORF cDNAs

**Q.** Which “compound-induced recruitment of GSPT1 to CRBN (reporter signal)” value (CRBN-GSPT1 interaction) does the source give for Cc1ccc(NC(=O)NCc2ccc3c(c2)CN(C2CCC(=O)NC2=O)C3=O)cc1Cl (stereo not drawn) [CC-885] here?
**A.** only recruited through CC-885

**Q.** What about the “compound-induced recruitment of GSPT2 to CRBN (reporter signal)” value (CRBN-GSPT2 interaction) of the same compound?
**A.** only recruited through CC-885

**Q.** C=CC[C@@H]1/C=C(\C)C[C@H](C)C[C@H](OC)[C@H]2O[C@@](O)(C(=O)C(=O)N3CCCC[C@H]3C(=O)O[C@H](/C(C)=C/[C@@H]3CC[C@@H](O)[C@H](OC)C3)[C@H](C)[C@@H](O)CC1=O)[C@H](C)C[C@@H]2OC [FK506, tacrolimus] was tested. Which “compound-dependent binding of PPP3CA to FKBP1A (reporter signal)” value [2] did it give?
**A.** binding of PPP3CA can be monitored

**Q.** For CO[C@H]1C[C@@H]2CC[C@@H](C)[C@@](O)(O2)C(=O)C(=O)N2CCCC[C@H]2C(=O)O[C@H]([C@H](C)C[C@@H]2CC[C@@H](OCCO)[C@H](OC)C2)CC(=O)[C@H](C)/C=C(\C)[C@@H](O)[C@@H](OC)C(=O)[C@H](C)C[C@H](C)/C=C/C=C/C=C/1C [everolimus], which “compound-induced recruitment of MTOR to FKBP1A (reporter signal)” value [3] is on record?
**A.** compound-induced recruitment of MTOR is detected

**Q.** Which “compound-dependent binding of PPP3CA to FKBP1A (reporter signal)” value [2] does the source give for CC[C@@H]1/C=C(\C)C[C@H](C)C[C@H](OC)[C@H]2O[C@@](O)(C(=O)C(=O)N3CCCC[C@H]3C(=O)O[C@H](/C(C)=C/[C@@H]3CC[C@H](Cl)[C@H](OC)C3)[C@H](C)[C@@H](O)CC1=O)[C@H](C)C[C@@H]2OC [pimecrolimus] here?
**A.** binding of PPP3CA can be monitored

From patent publication US20230116707A1, “DETECTION OF NOVEL DEGRADATION-RELATED INTERACTIONS” (Orionis Biosciences, Inc., priority 2019, published 2023)
